Data on twelve compounds can be found in patent US11691989B2, “Macrocyclic indoles as Mcl-1 inhibitors” (ASCENTAGE PHARMA (SUZHOU) CO., LTD., priority 2018, dated 2023).

Structures are written as SMILES. pIC50: −log10 of the molar value.

Experiment [1] has as its target Mcl-1 protein (residues 171-323) (Homo sapiens (Human), UniProt Q07820). Kind of experiment: Inhibition of Mcl-1 by fluorescence polarization (FP) competitive binding assay with FAM-Bid tracer. The note with it: 2 nM FAM-Bid, 20 nM Mcl-1, 30 min, read-out: Mc1-1 (FP). The procedure:
Inhibition of Mcl-1 by fluorescence polarization (FP) assay.
The method used a fluorescein labelled peptide (FAM-Bid) which binds to the Mcl-1 protein leading to an increased anisotropy measured in milli-polarization (mP) values using a plate reader.
A 10-points serial dilution of each compound was prepared in DMSO and 5 μL solution was transferred into flat bottomed, 96-well back plate (final DMSO concentration 5%). 120 μL of Buffer (PBS, 0.01% BGG (Sigma Cat. #SRE0011), 0.01% Triton X-100), containing the Fluorescein labelled peptide (Final concentration 2 nM) and Mcl-1 protein (final concentration 20 nM) was then added. […] 10-points dose response curves were plotted with GraphPad software using Sigmoidal Dose-Response Model and the IC50 values were determined by nonlinear regression fitting of the competition curves.

The subject of the next experiment is OPM-2 cells. Kind of experiment: Cell viability assay (OPM-2 cells), CCK-8. In kind it is cell-based. The note with it: Homo sapiens, OPM-2, 24 h, 5% FBS. The procedure:
Cell Viability Assay (OPM-2 cells)
OPM-2 cells were obtained from Deutsche Sammlung von Mikroorganismen and Zellkulturen GmbH (DSMZ). Cells were maintained in the recommended culture medium with 10% FBS at 37° C. and an atmosphere of 5% CO2.
The effect of representative Compounds of the Disclosure on cell viability was determined using Cell Counting Kit-8 (CCK-8) assay (Shanghai Life iLab Bio Technology) according to the manufacturer's instructions. Each tested compound was serially diluted in culture medium, 100 μL of the compound dilution was added into 96-well plates. 100 μL of an OPM-2 cell suspension (20000 cells/well) in culture medium were seeded into the corresponding well of the plate and the cells were incubated at 37° C. in an atmosphere of 5% CO2 for 24 hours. In the next day, 20 μL of CCK-8 solution was added to each well of the plate and incubated for 4 hours.
The plates were read at 450 nm on the microplate spectrophotometer (SpectraMax plus 384, Molecular devices). The readings were normalized to the vehicle cells, and the IC50 was calculated by nonlinear regression analysis using GraphPad Prism 6 software.

The test system of a further experiment is NCI-H929 cells. Description: Cell viability assay (NCI-H929 cells), CCK-8. The class given is cell-based. The note with it: Homo sapiens, NCI-H929, 24 h, 5% FBS. The procedure:
Cell Viability Assay (NCI-H929 cells)
NCI-H929 cells were obtained from American Type Culture Collection (ATCC). Cells were maintained in the recommended culture medium (RPMI 1640) with 10% FBS and 0.05 mM BME at 37° C. and an atmosphere of 5% CO2.
The effect of Compounds on cell viability was determined using Cell Counting Kit-8 (CCK-8) assay according to the manufacturer's instructions. 95 μL of NCI-H929 cell suspension (20000 cells/well) in culture medium were seeded into 96-well plates and cultured 4 hrs. Each tested compound was serially diluted in DMSO, then 5 μL of the compound or DMSO was diluted in 95 μL medium once more. At last, 5 μL of the compound dilution was added to the corresponding well of the cell plate. After the addition of the tested compound, the cells were incubated at 37° C. in an atmosphere of 5% CO2 for 24 hrs. At the end, 10 μL of CCK-8 solution was added to each well of the plate and incubated for 1-4 hours. The plates were read at 450 nm on the microplate reader (BioTek Synergy 1MF). The readings were normalized to the vehicle cells, and the IC50 was calculated by nonlinear regression analysis using GraphPad Prism 6 software.

Sequence of Mcl-1 protein (residues 171-323) (Q07820 171-323): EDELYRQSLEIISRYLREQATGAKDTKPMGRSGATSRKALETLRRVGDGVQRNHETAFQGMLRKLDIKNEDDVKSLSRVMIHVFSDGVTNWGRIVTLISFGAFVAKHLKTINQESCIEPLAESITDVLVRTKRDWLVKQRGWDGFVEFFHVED

Consider `CNC(=O)Cn1nc2c(c1C)-c1c(Cl)ccc3c1c(C)c(C(=O)O)n3CCCOc1cc(cc3ccccc13)SCc1cc(nn1C)CSC2` [Cpd. No. 10, (Z)-1^5-chloro-1^3,2^5,6^1-trimethyl-2^1-(2-(methylamino)-2-oxoethyl)-1^1H,2^1H,6^1H-10-oxa-4,8-dithia-1(4,1)-indola-2(4,3),6(3,5)-dipyrazola-9(3,1)-naphthalenacyclotridecaphane-1^2-carboxylic acid], for which the pIC50 in experiment [1] is 8.40; with OPM-2 cells, 5.39; in the experiment with NCI-H929 cells, 5.73.

With `Cc1c2c(nn1C)CSCc1cc(n(C)n1)CSc1cc(c3ccc(F)cc3c1)OCCCn1c(C(=O)O)cc3c-2c(Cl)ccc31` [Cpd. No. 13, (Z)-1^5-chloro-9^6-fluoro-2^1,2^5,6^1-trimethyl-1^1H,2^1H,6^1E-10-oxa-4,8-dithia-1(4,1)-indola-2(4,3),6(3,5)-dipyrazola-9(3,1)-naphthalenacyclotridecaphane-1^2-carboxylic acid], the pIC50 is 6.19 in the experiment on OPM-2 cells and 6.74 with NCI-H929 cells.

`Cc1c2c(nn1C)CSCc1cc(n(C)n1)CSc1cc(c3ccc(F)cc3c1)OCCCn1c(C(=O)O)c(F)c3c-2c(Cl)ccc31` [Cpd. No. 19, (Z)-1^5-chloro-1^3,9^6-difluoro-2^1,2^5,6^1-trimethyl-1^1H,2^1H,6^1H-10-oxa-4,8-dithia-1(4,1)-indola-2(4,3),6(3,5)-dipyrazola-9(3,1)-naphthalenacyclotridecaphane-1^2-carboxylic acid]: the pIC50 in experiment [1] is 8.00; in the experiment with OPM-2 cells it was 6.35; in the experiment on NCI-H929 cells it was 6.35.

`Cc1c(C(=O)O)n2c3ccc(F)c(c13)-c1c(nn(C)c1C)CSCc1cc(n(C)n1)CSc1cc(c3ccc(F)cc3c1)OCCC2` [Cpd. No. 21, (Z)-1^5,9^6-difluoro-1^3,2^1,2^5,6^1-tetramethyl-1^1H,2^1H,6^1H-10-oxa-4,8-dithia-1(4,1)-indola-2(4,3), 6(3,5)-dipyrazola-9(3,1)-naphthalenacyclotridecaphane-1^2-carboxylic acid]: the pIC50 in experiment [1] is 8.00; in the experiment on OPM-2 cells it was 6.65; with NCI-H929 cells it was 6.77.

Regarding `Cc1c2c(nn1C)CSCc1cc(n(C)n1)CSc1cc(c3ccc(F)cc3c1)OCCCn1c(C(=O)O)c(C#N)c3c-2c(Cl)ccc31` [Cpd. No. 25, (Z)-1^5-chloro-1^3-cyano-9^6-fluoro-2^1,2^5,6^1-trimethyl-1^1H,2^1H,6^1H-10-oxa-4,8-dithia-1(4,1)-indola-2(4,3),6(3,5)-dipyrazola-9(3,1)-naphthalenacyclotridecaphane-1^2-carboxylic acid], the figures for the pIC50 (in experiment [1]; with OPM-2 cells; in the experiment with NCI-H929 cells) were 7.68, 5.22 and 5.37, respectively.

In the case of `COCCn1nc(C)c2c1CSCc1cc(n(C)n1)CSc1cc(c3ccccc3c1)OCCCn1c(C(=O)O)c(C)c3c-2c(Cl)ccc31` [Cpd. No. 27, (Z)-1^5-chloro-2^1-(2-methoxyethyl)-1^3,2^3,6^1-trimethyl-1^1H,2^1H,6^1H-10-oxa-4,8-dithia-1(4,1)-indola-2(4,5),6(3,5)-dipyrazola-9(3,1)-naphthalenacyclotridecaphane-1^2-carboxylic acid], the pIC50 is 7.82 in experiment [1], 6.59 with OPM-2 cells and 6.55 in the experiment on NCI-H929 cells.

As for `Cc1c(C(=O)O)n2c3ccc(Cl)c(c13)-c1c(nn3c1COCC3)CN(S(C)(=O)=O)Cc1cc(n(C)n1)CSc1cc(c3ccc(F)cc3c1)OCCC2` [Cpd. No. 30, (Z)-1^5-chloro-9^6-fluoro-4-(isopropylsulfonyl)-1^3, 6^1-di methyl-2^6,2^7-dihydro-1^1H,2^4H,6^1H-10-oxa-8-thia-4-aza-2(3,2)-pyrazolo[5,1-c][1,4]oxazina-1(4,1)-indola-6(3,5)-pyrazola-9(3,1)-naphthalenacyclotridecaphane-1^2-carboxylic acid], the values for the pIC50 (in experiment [1]; in the experiment with OPM-2 cells; in the experiment with NCI-H929 cells) were 7.77, 5.28 and 5.73, respectively.

Consider `Cc1c(C(=O)O)n2c3ccc(Cl)c(c13)-c1c(nn(C)c1C)CN(S(=O)(=O)c1cnn(C)c1)Cc1cc(n(C)n1)CSc1cc(c3ccc(F)cc3c1)OCCC2` [Cpd. No. 36, (Z)-1^5-chloro-9^6-fluoro-1^3,2^1,2^5,6^1-tetramethyl-4#1-methyl-1H-pyrazol-4-yl)sulfonyl)-1^1H,2^1H,6^1H-10-oxa-8-thia-4-aza-1(4,1)-indola-2(4,3),6(3,5)-dipyrazola-9(3,1)-naphthalenacyclotridecaphane-1^2-carboxylic acid], for which the pIC50 in experiment [1] is 7.57; in the experiment on OPM-2 cells it was 5.70; in the experiment with NCI-H929 cells, 6.16.

For `Cc1c(C(=O)O)n2c3ccc(Cl)c(c13)-c1c(nn(C)c1C)CN(S(=O)(=O)c1ccn(C)n1)Cc1cc(n(C)n1)CSc1cc(c3ccc(F)cc3c1)OCCC2` [Cpd. No. 37, (Z)-1^5-chloro-9^6-fluoro-1^3,2^1,2^5,6^1-tetramethyl-4#1-methyl-1H-pyrazol-3-yl))sulfonyl)-1^1H,2^1H,6^1H-10-oxa-8-thia-4-aza-1(4,1)-indola-2(4,3),6(3,5)-dipyrazola-9(3,1)-naphthalenacyclotridecaphane-1^2-carboxylic acid], the values for the pIC50 (in experiment [1]; in the experiment with OPM-2 cells; in the experiment with NCI-H929 cells) were 7.54, 5.50 and 5.82, respectively.

As for `CNS(=O)(=O)N1Cc2cc(n(C)n2)CSc2cc(c3ccc(F)cc3c2)OCCCn2c(C(=O)O)c(C)c3c(c(Cl)ccc32)-c2c(nn(C)c2C)C1` [Cpd. No. 38, (Z)-1^5-chloro-9^6-fluoro-1^3,2^1,2^5,6^1-tetramethyl-4-(N-methylsulfamoyl)-1^1H,2^1H,6^1H-10-oxa-8-thia-4-aza-1 (4,1)-indola-2(4,3),6(3,5)-dipyrazola-9(3,1)-naphthalenacyclotridecaphane-1^2-carboxylic acid], the pIC50 is 8.15 in experiment [1], 6.27 with OPM-2 cells and 6.57 in the experiment with NCI-H929 cells.

`Cc1c(C(=O)O)n2c3ccc(Cl)c(c13)-c1c(nn(C)c1C)CN(S(=O)(=O)N(C)C)Cc1cc(n(C)n1)CSc1cc(c3ccc(F)cc3c1)OCCC2` [Cpd. No. 40, (Z)-1^5-chloro-9^6-fluoro-1^3,2^1,2^5,6^1-tetramethyl-4-(N, N-dimethylsulfamoyl)-1^1H,2^1H,6^1H-10-oxa-8-thia-4-aza-1 (4,1)-indola-2(4,3),6(3,5)-dipyrazola-9(3,1)-naphthalenacyclotridecaphane-1^2-carboxylic acid]: the pIC50 in experiment [1] is 7.89; with OPM-2 cells it was 6.72; in the experiment with NCI-H929 cells it was 6.80.

Regarding `Cc1c(C(=O)O)n2c3ccc(Cl)c(c13)-c1c(nn(C)c1C)CN(S(=O)(=O)c1cccnc1)Cc1cc(n(C)n1)CSc1cc(c3ccc(F)cc3c1)OCCC2` [Cpd. No. 41, (Z)-1^5-chloro-9^6-fluoro-1^3,2^1,2^5,6^1-tetramethyl-4-(pyridin-3-ylsulfonyl)-1^1H,2^1H,6^1H-10-oxa-8-thia-4-aza-1 (4,1)-indola-2(4,3),6(3,5)-dipyrazola-9(3,1)-naphthalenacyclotridecaphane-1^2-carboxylic acid], the results for the pIC50 (in experiment [1]; in the experiment with OPM-2 cells; with NCI-H929 cells) were 7.77, 6.56 and 6.70, respectively.
